Assay [1] has as its system Ha-ras-transformed NIH/3T3 cells. Kind of assay: Proliferation of transformed cells (CellTiter-Glo). It counts as cell-based. To be noted: 50 μM PD 98059; Ha-ras-transformed or parental NIH/3T3 cells. How it is done:
Cells were treated with vehicle, 50 μM SL0101, or 50 μM PD 98059 (PD 98059 is a MEK-specific inhibitor). Proliferation was measured using Promega CellTiter-Glo™ Luminescent cell viability assay.
(§1) Cell Culture. For proliferation studies cells were seeded at 2500 to 5000 cells per well in 96 well tissue culture plates in the appropriate medium as described by American Type Culture Collection. After 24 hr, the medium was replaced with medium containing compound or vehicle as indicated. Cell viability was measured at indicated time points using CellTiter-Glo™ assay reagent (Promega) according to manufacturer's protocol. For in vivo inhibition studies, cells were seeded at 2.5×10^5 cells/well in 12 well cell culture clusters. After 24 hr, the cells were serum starved for 24 hr then incubated with compound or vehicle for 3 hr prior to a 30 min PDB stimulation. Cells were lysed as previously described (J. Biol. Chem. 273, 13317-13323 (1998)). The lysates were normalized for total protein, electrophoresed and immunoblotted. For cell imaging, Ha-Ras-transformed NIH/3T3 cells were seeded on LABTEK II chamber slides (Nalge) at a density of 1×10^4 cells/well. After 24 hr, fresh medium was added the indicated compounds or vehicle. Images were taken 48 hr after treatment at a magnification of 20×.

Assay [2] concerns MCF-7 cells. The format is cell-based. As for the experimental part: (§2) Cell viability was measured at indicated time points. Proliferation assays were conducted using CellTiter-Glo Luminescent Cell Viability Assay (Promega), performed 44 hrs after treatment for FIGS. 8A &B and at indicated points for FIG. 8C. The data are expressed relative to time 0.
as §1

The subject of assay [3] is MCF-10A cells. As to the kind of experiment: Proliferation of MCF-10A cells (CellTiter-Glo). It counts as cell-based. How it is done: as §2, §1
Assay [4] has as its target T1, Focal Adhesion Kinase (FAK) (Homo sapiens, UniProt Q05397).
T1 construct: the catalytic domain of the tyrosine kinase, Focal Adhesion Kinase (FAK); His; made in house; host or cells: Sf9 (baculovirus, Bac-to-Bac)
Kind of assay: FAK tyrosine kinase ELISA. It counts as biochemical. To be noted: purified compounds.

The target of assay [5] is T2, Rsk2 (Homo sapiens, UniProt P51812, Y707A).
T2 construct: His; made in house; host or cells: Sf9 (baculovirus, Bac-to-Bac)
As to the kind of experiment: Rsk kinase ELISA with immobilized substrate and phosphospecific antibodies. The format is biochemical.

The target of assay [6] is T3, Msk1 (Homo sapiens, UniProt O75582).
T3 construct: purchased Upstate Biotechnology
As to the kind of experiment: Msk1 kinase ELISA. It counts as biochemical. The conditions noted are these: purified compounds. How it is done:
(§3) Kinase Assays. Glutathione-S-transferase (GST)-fusion protein (1 g) containing the sequence -[…] (SEQ ID NO: 3, for serine/threonine kinase assays) or -[…] (SEQ ID NO: 4, for tyrosine kinase assays) was adsorbed in the wells of LumiNunc 96-well polystyrene plates (MaxiSorp surface treatment). The wells were blocked with sterile 3% tryptone in phosphate buffered saline and stored at 4° C. for up to 6 months. Kinase (5 nM) in 70 μl of kinase buffer (5 mM -glycerophosphate pH 7.4, 25 mM HEPES pH 7.4, 1.5 mM DTT, 30 mM MgCl2, 0.15 M NaCl) was dispensed into each well. Compound at indicated concentrations or vehicle was added, and reactions were initiated by the addition of 30 μl of ATP for a final ATP concentration of 10 μM unless indicated otherwise. Reactions were terminated after 10 to 45 min by addition of 75 μl of 500 mM EDTA, pH 7.5. All assays measured the initial velocity of reaction. After extensive washing of wells, polyclonal phosphospecific antibody developed against the phosphopeptide and HRP-conjugated anti-rabbit antibody (211-035-109, Jackson ImmunoResearch Laboratories) were used to detect serine phosphorylation of the substrate. HRP-conjugated anti-phospho-tyrosine antibody (RC20, BD Transduction Laboratories) was used for phospho-tyrosine detection. His-tagged active Rsk and FAK were expressed in Sf9 cells and purified using NiNTA resin (Qiagen). Baculovirus was prepared using the Bac-to-Bac® baculovirus expression system (Invitrogen). PKA was bacterially expressed and activated as described (Anal. Biochem. 245, 115-122 (1997)). Active Msk1 and p70 S6 kinase was purchased from Upstate Biotechnology. Immunoprecipitation and kinase assays were performed as previously described (Poteet-Smith et al., J. Biol. Chem, 274, 22135-22138 (1999) using the immobilized GST-fusion proteins and ELISAs as above.

The target in assay [7] is T4, p70 S6K (Homo sapiens, UniProt P23443).
T4 construct: purchased Upstate Biotechnology
As to the kind of experiment: p70 S6K kinase ELISA. The format is biochemical. The conditions noted are these: purified compounds. How it is done:
as §3

The target in assay [8] is T5, protein kinase A (PKA) (Homo sapiens, UniProt P17612).
T5 construct: made in house; host or cells: bacteria
As to the kind of experiment: PKA kinase ELISA. The format is biochemical. The conditions noted are these: purified compounds. As for the experimental part:
as §3

In assay [9] the test system is p140 phosphorylation in MCF-7 cells. As to the kind of experiment: PDB-induced p140 phosphorylation in MCF-7 cells (immunoblot). The format is cell-based, human. To be noted: 50 μM, 3 hr pre-incubation, 500 nM PDB 30 min. How it is done: Cells were treated with 500 nM PDB for 30 min prior to lysis. Protein concentration of lysates was measured and lysates were electrophoresed, transferred and immunoblotted.
as §1

[10] abbreviates: in vitro, increasing concentrations of compound, read-out: IC50 for Rsk catalytic activity.

Like-named read-outs stand apart in the source and are kept apart here.

T2 sequence (P51812 whole entry Y707A): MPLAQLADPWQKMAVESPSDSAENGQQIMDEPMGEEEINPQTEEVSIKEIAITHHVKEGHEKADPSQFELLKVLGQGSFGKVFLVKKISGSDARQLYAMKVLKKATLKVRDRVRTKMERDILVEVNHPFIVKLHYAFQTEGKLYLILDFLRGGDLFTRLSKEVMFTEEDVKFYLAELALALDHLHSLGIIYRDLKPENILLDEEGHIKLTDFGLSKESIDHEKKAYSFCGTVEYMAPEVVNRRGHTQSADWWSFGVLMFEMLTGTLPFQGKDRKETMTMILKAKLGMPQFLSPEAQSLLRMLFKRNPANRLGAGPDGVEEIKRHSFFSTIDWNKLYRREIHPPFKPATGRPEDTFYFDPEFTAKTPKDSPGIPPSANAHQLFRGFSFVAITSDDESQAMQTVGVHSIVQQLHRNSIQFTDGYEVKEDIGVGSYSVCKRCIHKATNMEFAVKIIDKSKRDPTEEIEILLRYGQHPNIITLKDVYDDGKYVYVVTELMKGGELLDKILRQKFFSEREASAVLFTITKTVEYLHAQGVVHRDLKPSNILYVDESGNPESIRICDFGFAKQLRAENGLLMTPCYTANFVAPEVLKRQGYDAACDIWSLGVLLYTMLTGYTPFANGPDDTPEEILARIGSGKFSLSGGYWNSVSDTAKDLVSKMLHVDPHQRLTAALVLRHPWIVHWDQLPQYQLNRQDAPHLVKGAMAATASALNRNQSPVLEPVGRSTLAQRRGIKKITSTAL
T3 sequence (O75582 whole entry, species assumed): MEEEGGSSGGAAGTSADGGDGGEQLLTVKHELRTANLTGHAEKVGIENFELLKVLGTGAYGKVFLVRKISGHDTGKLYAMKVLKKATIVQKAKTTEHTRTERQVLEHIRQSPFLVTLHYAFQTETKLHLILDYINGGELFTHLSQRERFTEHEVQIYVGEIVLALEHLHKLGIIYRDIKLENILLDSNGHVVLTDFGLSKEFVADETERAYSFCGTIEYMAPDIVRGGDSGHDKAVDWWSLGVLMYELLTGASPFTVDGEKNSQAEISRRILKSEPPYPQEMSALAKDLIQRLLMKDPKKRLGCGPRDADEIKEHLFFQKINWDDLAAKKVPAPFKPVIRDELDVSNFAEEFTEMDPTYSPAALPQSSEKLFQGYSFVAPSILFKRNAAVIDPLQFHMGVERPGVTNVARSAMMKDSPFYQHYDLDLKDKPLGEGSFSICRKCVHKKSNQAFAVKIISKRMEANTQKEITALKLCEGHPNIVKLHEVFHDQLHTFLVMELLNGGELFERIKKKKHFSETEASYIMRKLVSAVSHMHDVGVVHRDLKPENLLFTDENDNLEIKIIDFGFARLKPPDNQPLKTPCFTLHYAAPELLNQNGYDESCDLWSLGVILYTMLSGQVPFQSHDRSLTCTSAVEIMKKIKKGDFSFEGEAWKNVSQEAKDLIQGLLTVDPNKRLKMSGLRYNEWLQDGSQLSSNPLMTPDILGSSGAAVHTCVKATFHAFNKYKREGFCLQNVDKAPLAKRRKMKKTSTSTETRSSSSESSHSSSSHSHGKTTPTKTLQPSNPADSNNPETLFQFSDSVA
T1 sequence (Q05397 422-680 limits assumed, species assumed): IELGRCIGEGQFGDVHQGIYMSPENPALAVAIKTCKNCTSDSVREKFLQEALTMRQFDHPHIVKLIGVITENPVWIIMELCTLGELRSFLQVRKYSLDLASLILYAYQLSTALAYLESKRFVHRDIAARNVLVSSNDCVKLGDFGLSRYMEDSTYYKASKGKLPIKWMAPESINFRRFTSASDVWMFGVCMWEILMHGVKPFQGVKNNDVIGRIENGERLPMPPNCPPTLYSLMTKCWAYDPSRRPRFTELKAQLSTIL
T4 sequence (P23443 24-525): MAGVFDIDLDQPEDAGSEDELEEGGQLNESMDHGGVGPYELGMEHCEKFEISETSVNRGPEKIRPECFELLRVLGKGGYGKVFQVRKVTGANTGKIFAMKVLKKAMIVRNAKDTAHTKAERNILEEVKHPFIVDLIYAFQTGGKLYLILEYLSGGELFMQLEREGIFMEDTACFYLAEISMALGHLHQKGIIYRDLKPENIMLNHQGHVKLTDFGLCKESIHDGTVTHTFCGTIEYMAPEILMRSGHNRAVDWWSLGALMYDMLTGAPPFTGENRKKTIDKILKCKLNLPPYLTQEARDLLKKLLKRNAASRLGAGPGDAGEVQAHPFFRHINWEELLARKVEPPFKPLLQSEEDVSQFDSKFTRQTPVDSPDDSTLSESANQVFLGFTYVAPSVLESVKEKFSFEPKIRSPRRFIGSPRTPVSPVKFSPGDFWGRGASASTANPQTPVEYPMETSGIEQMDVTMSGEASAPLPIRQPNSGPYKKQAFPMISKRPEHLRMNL

Regarding `COc1cccc(-c2cc(=O)c3ccccc3o2)c1N` [PD 98059, reference compound], the “influence on the proliferation rate” value in assay [1] is reported as “observed only when cells were incubated in the presence of low concentrations of fetal calf serum”.
For `Cn1cc(C2=C(c3cn(CCCSC(=N)N)c4ccccc34)C(=O)NC2=O)c2ccccc21` [Ro 318220, reference compound], the “proliferation of MCF-7 cells” value in assay [2] (500 nM) is reported as “attenuated proliferation”. For the same molecule, the “proliferation of MCF-10A cells” value in [3] (500 nM) is recorded as “attenuated proliferation”.
Take `CC(=O)OC1C(C)OC(Oc2c(-c3ccc(O)cc3)oc3cc(O)cc(O)c3c2=O)C(OC(C)=O)C1O` [SL0101-2, kaempferol 3-α-L-(2″,4″-diacetyl) rhamnopyranoside]: the “inhibition of FAK” value in assay [4] is on record as “do not inhibit”. The IC50 in [5] (setting [10]) came out at 580 nM. Moreover, the “inhibition of MSK” value in assay [6] was “do not inhibit”. Also, the “inhibition of p70 S6 kinase” value in assay [7] is reported as “do not inhibit”. The “inhibition of Protein Kinase A” value in assay [8] was “do not inhibit”.
As to `CC(=O)OC1C(C)OC(Oc2c(-c3ccc(O)cc3)oc3cc(O)cc(O)c3c2=O)C(O)C1O` [SL0101-3, kaempferol-3-α-L-(4″-acetyl) rhamnopyranoside], in assay [4], the “inhibition of FAK” value is given as “do not inhibit”. The IC50 in [5] (setting [10]) is 190 nM. Besides, the “inhibition of MSK” value in [6] was “do not inhibit”. The “inhibition of p70 S6 kinase” value in assay [7] was “do not inhibit”. Moreover, the “inhibition of Protein Kinase A” value in assay [8] was “do not inhibit”.
Consider `N#CC(=C(/N)Sc1ccccc1N)/C(C#N)=C(\N)Sc1ccccc1N` [U0126, reference compound], for which the “PDB-induced p140 phosphorylation” value in [9] is given as “abrogates”. The “proliferation of MCF-7 cells” value in assay [2] (50 μM, 44 hrs after treatment) is “halted proliferation”. In assay [3] (50 μM, 44 hrs after treatment), the “growth of MCF-10A cells” value is “halted proliferation”.
Regarding `O=c1c(O)c(-c2ccc(O)cc2)oc2cc(O)cc(O)c12` [kaempferol, reference compound], in assay [5] (in vitro kinase assay with immobilized substrate, read-out: IC50 for Rsk), the IC50 came out at 15000 nM. In addition, the “growth of MCF-7 cells” value in [2] (concentration not given, same extent as MCF-10A) is on record as “slows growth”. The “growth of MCF-10A cells” value in [3] (concentration not given, same extent as MCF-7) is listed as “slows growth”.

The values above are taken from patent US20050233985A1, “Rsk inhibitors and therapeutic uses thereof” (priority 2003, published 2005).
